This is an account of results in patent US8399481B2, “Compounds” (Xention Ltd, priority 2009, dated 2013).

In one assay the target is hKv1.5 (Homo sapiens, UniProt P22460). In words: hKv1.5 % inhibition at 300 nM (Table 1). Format: cell-based. The following applies: for inhibition at 0.3 µM: read-out: hKv1.5 % inh. 300 nM.
Another assay has as its target hKv1.3 (Homo sapiens, UniProt P22001). Description: hKv1.3 % inhibition at 1 uM (Table 1). Format: cell-based. Conditions: for inhibition at 1 µM: read-out: hKv1.3 % inh. 1 uM.
Assay [1] deals with delayed-type hypersensitivity (DTH) response. Conditions: DTH model in vivo; cited from earlier work.

No end group written: not given here.

Chain of hKv1.3 (P22001 whole entry): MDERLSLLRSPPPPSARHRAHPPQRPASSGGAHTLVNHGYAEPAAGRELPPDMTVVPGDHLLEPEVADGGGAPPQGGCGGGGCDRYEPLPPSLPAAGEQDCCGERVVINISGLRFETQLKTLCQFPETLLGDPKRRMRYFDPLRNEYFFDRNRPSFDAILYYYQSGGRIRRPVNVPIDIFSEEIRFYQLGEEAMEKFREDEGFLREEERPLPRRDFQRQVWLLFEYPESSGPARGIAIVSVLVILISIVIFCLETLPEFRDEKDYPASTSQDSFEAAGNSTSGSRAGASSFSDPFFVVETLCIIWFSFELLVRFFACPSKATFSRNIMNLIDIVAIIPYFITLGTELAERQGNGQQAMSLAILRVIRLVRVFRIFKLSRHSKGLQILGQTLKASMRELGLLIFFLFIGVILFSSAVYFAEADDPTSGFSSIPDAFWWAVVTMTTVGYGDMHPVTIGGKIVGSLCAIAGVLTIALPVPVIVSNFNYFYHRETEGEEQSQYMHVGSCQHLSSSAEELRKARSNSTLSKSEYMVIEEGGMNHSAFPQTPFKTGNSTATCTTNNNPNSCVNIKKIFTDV
Chain of hKv1.5 (P22460 whole entry): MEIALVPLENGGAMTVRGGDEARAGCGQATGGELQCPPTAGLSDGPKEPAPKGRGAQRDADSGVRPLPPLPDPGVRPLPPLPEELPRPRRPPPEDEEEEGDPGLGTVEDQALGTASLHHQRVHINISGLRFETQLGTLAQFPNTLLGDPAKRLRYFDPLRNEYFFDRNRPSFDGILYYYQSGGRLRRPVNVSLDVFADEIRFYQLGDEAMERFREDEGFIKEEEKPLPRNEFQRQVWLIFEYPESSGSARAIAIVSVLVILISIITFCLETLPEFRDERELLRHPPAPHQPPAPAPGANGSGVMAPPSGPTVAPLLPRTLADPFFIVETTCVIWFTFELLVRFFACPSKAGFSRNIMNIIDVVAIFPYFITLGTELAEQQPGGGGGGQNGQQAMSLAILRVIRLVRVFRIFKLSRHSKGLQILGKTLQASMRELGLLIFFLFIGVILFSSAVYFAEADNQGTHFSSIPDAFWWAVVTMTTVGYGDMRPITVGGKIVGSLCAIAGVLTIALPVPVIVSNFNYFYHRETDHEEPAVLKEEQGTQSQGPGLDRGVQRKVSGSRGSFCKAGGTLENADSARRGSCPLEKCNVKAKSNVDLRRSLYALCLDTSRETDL

Consider `N#Cc1cccc(S(=O)(=O)N(Cc2ccc(Cl)cc2)c2ccc3c(c2)C(=O)NCC3)c1` [Example 8, N-(4-Chloro-benzyl)-3-cyano-N-(1-oxo-1,2,3,4-tetrahydro-isoquinolin-7-yl)-benzenesulfonamide], for which, at hKv1.5, the inhibition at 0.3 µM worked out at 91.2%. The inhibition at 1 µM on hKv1.3 worked out at 94.6%. On the same counts, the results for `CCN1Cc2cc(N(Cc3ccc(Cl)cc3)S(=O)(=O)c3ccn(C)n3)ccc2C1=O` [Example 18, 1-Methyl-1H-pyrazole-3-sulfonic acid (4-chloro-benzyl)-(2-ethyl-1-oxo-2,3-dihydro-1H-isoindol-5-yl)-amide] are 77.3% and 75.2%.

In the case of `O=C1NCCc2ccc(N(Cc3ccc(Cl)cc3)S(=O)(=O)c3cccnc3)cc21` [Example 13, Pyridine-3-sulfonic acid (4-chloro-benzyl)-(1-oxo-1,2,3,4-tetrahydro-isoquinolin-7-yl)-amide], at hKv1.5, the inhibition at 0.3 µM stood at 36%. The inhibition at 1 µM on hKv1.3 was 90.5%. Regarding `CCN1Cc2ccc(N(Cc3ccc(Cl)cc3)S(=O)(=O)c3cccnc3)cc2C1=O` [Example 2, Pyridine-3-sulfonic acid (40chloro-benzyl)-(2-ethyl-3-oxo-2,3-dihydro-1H-isoindol-5-yl)-amide], the “hKv1.5 % inh. 300 nM” value on hKv1.5 came to 65.0%. The “hKv1.3 % inh. 1 uM” value on hKv1.3 stood at 97.2%. As to `CCN1CC(C)(C)c2ccc(N(Cc3ccc(Cl)cc3)S(=O)(=O)c3cn(C)cn3)cc2C1=O` [Example 6, 1-Methyl-1H-imidazole-4-sulfonic acid (4-chloro-benzyl)-(2-ethyl-4,4-dimethyl-1-oxo-1,2,3,4-tetrahydro-isoquinolin-7-yl)-amide], at hKv1.5, the inhibition at 0.3 µM came to 70.1%. Also, the inhibition at 1 µM at hKv1.3 turned out to be 96.1%. For the compound `CC1(C)CNC(=O)c2cc(N(Cc3ccc(Cl)cc3)S(=O)(=O)c3cccnc3)ccc21` [Example 15], at hKv1.5, the “hKv1.5 % inh. 300 nM” value came out at 70.0%. For the same compound, the “hKv1.3 % inh. 1 uM” value on hKv1.3 turned out to be 88.9%. Regarding `O=c1ccc2c(OCCCCOc3ccccc3)c3ccoc3cc2o1` [PAP-1], the “suppression of DTH response” value in assay [1] is recorded as “effective”. Take `CCN1Cc2ccc(N(Cc3ccc(Cl)cc3)S(=O)(=O)c3cccc(C#N)c3)cc2C1=O` [Example 11, N-(4-Chloro-benzyl)-3-cyano-n-(2-ethyl-3-oxo-2,3-dihydro-1H-isoindol-5-yl)-benzene sulfonamide]: the “hKv1.5 % inh. 300 nM” value on hKv1.5 worked out at 86.9%. The “hKv1.3 % inh. 1 uM” value at hKv1.3 is reported as 93.8%. On to `CCN1Cc2ccc(N(Cc3ccc(Cl)cc3)S(=O)(=O)c3cn(C)cn3)cc2C1=O` [Example 14, 1-Methyl-1H-imidazole-4-sulfonic acid (4-chloro-benzyl)-(2-ethyl-3-oxo-2,3-dihydro-1H-isoindol-5-yl)-amide], for which the inhibition at 0.3 µM on hKv1.5 came out at 27.1%. At hKv1.3, the inhibition at 1 µM is 89.7%. The corresponding values for `CCN1Cc2cc(N(Cc3ccc(Cl)cc3)S(=O)(=O)c3cn(C)cn3)ccc2C1=O` [Example 22, 1-Methyl-1H-imidazole-4-sulfonic acid (4-chloro-benzyl)-(2-ethyl-1-oxo-2,3-dihydro-1H-isoindol-5-yl)-amide] are 30.6% and 67.9%.

Take `CCN1Cc2cc(N(Cc3ccc(Cl)cc3)S(=O)(=O)c3cccc(C#N)c3)ccc2C1=O` [Example 12, N-(4-Chloro-benzyl)-3-cyano-N-(2-ethyl-1-oxo-2,3-dihydro-1H-isoindol-5-yl) benzene sulfonamide]: the “hKv1.5 % inh. 300 nM” value at hKv1.5 is 63.2%. The “hKv1.3 % inh. 1 uM” value on hKv1.3 is recorded as 93.0%. Consider `Cn1ccc(S(=O)(=O)N(Cc2ccc(Cl)cc2)c2ccc3c(c2)C(=O)N(CCO)CC3)n1` [Example 10, 1-Methyl-1H-pyrazole-3-sulfonic acid (4-chloro-benzyl)-[2-(2-hydroxy-ethyl)-1-oxo-1,2,3,4-tetrahydro-isoquinolin-7-yl]-amide], for which the inhibition at 0.3 µM on hKv1.5 was found to be 47.1%. Moreover, the inhibition at 1 µM on hKv1.3 amounted to 94.2%. Regarding “N-(4-Chloro-benzyl)-3-cyano-N-(1-oxo-1,2,3,4-tetrahydro-isoquinolin-7-yl)-benzenesulfonamide [Example 3]”, on hKv1.5, the “hKv1.5 % inh. 300 nM” value is on record as 87.8%. The “hKv1.3 % inh. 1 uM” value at hKv1.3 was 97.2%. `CCN1Cc2ccc(N(Cc3ccc(Cl)cc3)S(=O)(=O)c3ccn(C)n3)cc2C1=O` [Example 4, 1-Methyl-1H-pyrazole-3-sulfonic acid (4-chloro-benzyl)-(2-ethyl-3-oxo-2,3-dihydro-1H-isoindol-5-yl)-amide]: the inhibition at 0.3 µM on hKv1.5 came to 63.8%. The inhibition at 1 µM at hKv1.3 was found to be 96.6%. Regarding “1-Methyl-1H-imidazole-4-sulfonic acid (4-chloro-benzyl)-(2-ethyl-1-oxo-2,3-dihydro-1H-isoindol-4-yl)-amide [Example 21]”, at hKv1.5, the “hKv1.5 % inh. 300 nM” value stood at 23.8%. Besides, the “hKv1.3 % inh. 1 uM” value at hKv1.3 was 69.8%.

As to `CCN1CCc2cc(N(Cc3ccccc3)S(=O)(=O)c3cn(C)cn3)ccc2C1=O` [Example 23, 1-Methyl-1H-imidazole-4-sulfonic acid benzyl-(2-ethyl-1-oxo-1,2,3,4-tetrahydro-isoquinolin-6-yl)-amide], the inhibition at 0.3 µM at hKv1.5 was found to be 26.5%. In addition, the inhibition at 1 µM at hKv1.3 was found to be 58%.

Take `CCN1CCc2ccc(N(Cc3ccc(Cl)cc3)S(=O)(=O)c3ccn(C)n3)cc2C1=O` [Example 1, 1-Methyl-1H-pyrazole-3-sulfonic acid (4-chloro-benzyl)-(2-ethyl-1-oxo-1,2,3,4-tetrahydro-isoquinolin-7-yl)-amide]: the inhibition at 0.3 µM on hKv1.5 stood at 82.4%. Moreover, the inhibition at 1 µM at hKv1.3 came out at 99.6%. Turning to `CCN1CCc2cc(N(Cc3ccccc3)S(=O)(=O)c3ccn(C)n3)ccc2C1=O` [Example 19, 1-Methyl-1H-pyrazole-3-sulfonic acid benzyl (2-ethyl-1-oxo-1,2,3,4-tetrahydro-isoquinolin-6-yl)-amide], the “hKv1.5 % inh. 300 nM” value at hKv1.5 was found to be 25.4%. Further, at hKv1.3, the “hKv1.3 % inh. 1 uM” value is listed as 74.3%.

For the compound `Cn1ccc(S(=O)(=O)N(Cc2ccc(Cl)cc2)c2ccc3c(c2)C(=O)NCC3)n1` [Example 7, 1-Methyl-1H-pyrazole-3-sulfonic acid (4-chloro-benzyl)-(1-oxo-1,2,3,4-tetrahydro-isoquinolin-7-yl)-amide], at hKv1.5, the inhibition at 0.3 µM was determined as 42.6%. Also, the inhibition at 1 µM at hKv1.3 came out at 95.5%. The corresponding values for `CN1CCc2ccc(N(Cc3ccc(Cl)cc3)S(=O)(=O)c3ccn(C)n3)cc2C1=O` [Example 9, 1-Methyl-1H-pyrazole-3-sulfonic acid (4-chloro-benzyl)-(2-methyl-1-oxo-1,2,3,4-tetrahydro-isoquinolin-7-yl)-amide] are 76.4% and 94.5%. For “margatoxin (TIINVKCTSPKQCLPPCKAQFGQSAGAKCMNGKCKCYPH; ends and bridges not checked; cysteine pairing not given here; UniProt P40755 1-39, looked up) [MgTX]”, the “suppression of DTH response” value in assay [1] is on record as “effectively suppressed”. `O=C1c2cc(N(Cc3ccc(Cl)cc3)S(=O)(=O)c3cccnc3)ccc2CCN1CCO` [Example 5, Pyridine-3-sulfonic acid (4-chloro-benzyl)-[2-(2-hydroxy-ethyl)-1-oxo-1,2,3,4-tetrahydro-isoquinolin-7-yl]-amide]: the inhibition at 0.3 µM on hKv1.5 was 76%. For the same compound, the inhibition at 1 µM on hKv1.3 was found to be 96.4%. With `Cn1ccc(S(=O)(=O)N(Cc2ccc(Cl)cc2)c2ccc3c(c2)C(=O)NCC3(C)C)n1` [Example 16, 1-Methyl-1H-pyrazole-3-sulfonic acid (4-chloro-benzyl)-(4,4-dimethyl-1-oxo-1,2,3,4-tetrahydro-isoquinolin-7-yl)-amide], the inhibition at 0.3 µM at hKv1.5 came out at 64.2%. In addition, at hKv1.3, the inhibition at 1 µM stood at 88.3%. `C=C1C[C@@]2(O)[C@@H]3CC[C@@]4(C)[C@@H]5C=CC(=O)OC[C@]5(C(C)OC(C)=O)[C@@H](OC(C)=O)[C@@H](OC(C)=O)[C@@H]4[C@@]3(C)[C@H](OC(C)=O)[C@H](OC(C)=O)[C@@]2(C)C2(C(=O)OC)O[C@H]12` (stereo partly shown) [Correolide]: the “suppression of DTH response” value in assay [1] is given as “effective”. As to `Cn1cnc(S(=O)(=O)N(Cc2ccc(Cl)cc2)c2ccc3c(c2)C(=O)NCC3(C)C)c1` [Example 20, 1-Methyl-1H-imidazole-4-sulfonic acid (4-chloro-benzyl)-(4,4-dimethyl-1-oxo-1,2,3,4-tetrahydro-isoquinolin-7-yl)-amide], on hKv1.5, the inhibition at 0.3 µM stood at 34.1%. Also, on hKv1.3, the inhibition at 1 µM came to 72.6%. As to `CC(C)N1C(=O)c2ccc(N(Cc3ccc(Cl)cc3)S(=O)(=O)c3cn(C)cn3)cc2C1=O` [Example 17, 1-Methyl-1H-imidazole-4-sulfonic acid (4-chloro-benzyl)-(2-isopropyl-1,3-dioxo-2,3-dihydro-1-H-isoindol-5-yl)-amide], the “hKv1.5 % inh. 300 nM” value at hKv1.5 was 58.0%. Also, the “hKv1.3 % inh. 1 uM” value at hKv1.3 was found to be 79.7%.
